Values joined by “and” are separate entries in the source; they are usually repeats but may differ in a detail not shown here. Identical values can stand only once. Inconclusive results and toxic doses are left out. How the source made its calls: active means survival T/C of 150% or more; inactive means T/C below 125% in these data.
System: CD2F1 mice, L1210 leukemia ip, survival T/C
Assay: NCI In Vivo Anticancer Drug Screen. Data for tumor model L1210 Leukemia (intraperitoneal) in CD2F1 (CDF1) mice
Details: higher = longer survival
In short: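 Read-out first: treated-group measurement over vehicle-control measurement, expressed as a ratio. Animals bore a transplanted tumor line and were dosed with compound or vehicle.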

[1] = endpoint: mean survival time, dose: 100.0 mg/kg/injection, schedule: Q01DX001 (ip), vehicle: saline with Tween-80
[2] = endpoint: mean survival time, dose: 100.0 mg/kg/injection, schedule: Q04DX003 (ip), vehicle: saline with Tween-80
[3] = endpoint: mean survival time, dose: 200.0 mg/kg/injection, schedule: Q01DX001 (ip), vehicle: saline with Tween-80
[4] = endpoint: mean survival time, dose: 200.0 mg/kg/injection, schedule: Q04DX003 (ip), vehicle: saline with Tween-80
[5] = endpoint: mean survival time, dose: 400.0 mg/kg/injection, schedule: Q04DX003 (ip), vehicle: saline with Tween-80
[6] = endpoint: mean survival time, dose: 100.0 mg/kg/injection, schedule: Q01DX009 (ip), vehicle: Klucel (hydroxypropylcellulose) (HPC)
[7] = endpoint: mean survival time, dose: 200.0 mg/kg/injection, schedule: Q01DX009 (ip), vehicle: Klucel (hydroxypropylcellulose) (HPC)
[8] = endpoint: mean survival time, dose: 400.0 mg/kg/injection, schedule: Q01DX009 (ip), vehicle: Klucel (hydroxypropylcellulose) (HPC)
[9] = endpoint: mean survival time, dose: 100.0 mg/kg/injection, schedule: Q01DX001 (ip), vehicle: saline
[10] = endpoint: mean survival time, dose: 75.0 mg/kg/injection, schedule: Q01DX001 (ip), vehicle: saline
[11] = endpoint: mean survival time, dose: 150.0 mg/kg/injection, schedule: Q01DX001 (ip), vehicle: saline
[12] = endpoint: mean survival time, dose: 100.0 mg/kg/injection, schedule: Q01DX009 (ip), vehicle: saline with Tween-80
[13] = endpoint: mean survival time, dose: 200.0 mg/kg/injection, schedule: Q01DX009 (ip), vehicle: saline with Tween-80
[14] = endpoint: mean survival time, dose: 400.0 mg/kg/injection, schedule: Q01DX009 (ip), vehicle: saline with Tween-80
[15] = endpoint: mean survival time, dose: 25.0 mg/kg/injection, schedule: Q01DX009 (ip), vehicle: Klucel (hydroxypropylcellulose) (HPC)
[16] = endpoint: mean survival time, dose: 50.0 mg/kg/injection, schedule: Q01DX009 (ip), vehicle: Klucel (hydroxypropylcellulose) (HPC)

Measured: T/C

CC(=O)NC1(C(=O)O)SCCCS1
inactive: endpoint: mean survival time, dose: 50.0 mg/kg/injection, schedule: Q04DX002 (ip), vehicle: saline with Tween-80 92 % of control | endpoint: mean survival time, dose: 100.0 mg/kg/injection, schedule: Q04DX002 (ip), vehicle: saline with Tween-80 100 % of control | endpoint: mean survival time, dose: 400.0 mg/kg/injection, schedule: Q04DX002 (ip), vehicle: saline with Tween-80 89 % of control

O=C1C[C@H]2[C@H](CO)[C@@H](OC(=O)c3ccc(-c4ccccc4)cc3)C[C@H]2O1
inactive: endpoint: mean survival time, dose: 100.0 mg/kg/injection, schedule: Q01DX001 (ip), vehicle: alcohol 94 % of control | endpoint: mean survival time, dose: 200.0 mg/kg/injection, schedule: Q01DX001 (ip), vehicle: alcohol 88 % of control | endpoint: mean survival time, dose: 400.0 mg/kg/injection, schedule: Q01DX001 (ip), vehicle: alcohol 92 % of control

CC1=CCCN(CCc2c[nH]c3ccccc23)C1
inactive: endpoint: mean survival time, dose: 50.0 mg/kg/injection, schedule: Q04DX003 (ip), vehicle: saline with Tween-80 97 % of control | [1] 90 % of control | [2] 101 % of control | [3] 90 % of control

CC(C)CCCC(C)C1CCC2C3CC=C4CC(C(=O)O)CCC4C3CCC12C (configuration not stated)
inactive: [2] 92 % of control | [4] 88 % of control | [5] 88 % of control

O=C(O)CNCc1ccc2c(c1)OCCO2
inactive: [6] 103 % of control | [7] 98 % of control | [8] 95 % of control

CC1(C)N=C(N)N=C(N)N1c1ccc(CC(=O)Nc2ccc(S(=O)(=O)F)cc2)cc1
inactive: [9] 102 % of control | endpoint: mean survival time, dose: 200.0 mg/kg/injection, schedule: Q01DX001 (ip), vehicle: saline 97 % of control | endpoint: mean survival time, dose: 400.0 mg/kg/injection, schedule: Q01DX001 (ip), vehicle: saline 96 % of control

CC12CCC3C(CC=C4CC(OC(=N)N)CCC43C)C1CCC2=O (configuration not stated)
inactive: [10] 98 % of control | [11] 101 % of control

CC(C)CCCC(C)C1CCC2C3CC=C4CC(O)CCC4(C)C3CCC12C (configuration not stated) (tested in a mixture with another compound)
inactive: endpoint: mean survival time, dose: 12.5 mg/kg/injection, schedule: Q01DX009 (ip), vehicle: water 102 % of control | endpoint: mean survival time, dose: 25.0 mg/kg/injection, schedule: Q01DX009 (ip), vehicle: water 100 % of control | endpoint: mean survival time, dose: 50.0 mg/kg/injection, schedule: Q01DX009 (ip), vehicle: water 102 % of control

O=C(O)c1cc(N=Nc2ccc3ccccc3c2)ccc1O
inactive: [12] 103 % of control | [13] 106 % of control | [14] 98 % of control

CC1CCN=C(CCC2CCCCC2=O)O1 (configuration not stated)
inactive: [2] 96 % of control | [4] 101 % of control | [5] 96 % of control

COc1ccc2c(Cc3ccc(O)cc3)cncc2c1O
inactive: [10] 100 % of control | [11] 106 % of control | endpoint: mean survival time, dose: 300.0 mg/kg/injection, schedule: Q01DX001 (ip), vehicle: saline 98 % of control

CC1=C(N2CC2)C(=O)c2c(COC(N)=O)c3n(c2C1=O)CCC3OC(N)=O (configuration not stated)
inactive: endpoint: mean survival time, dose: 1.5 mg/kg/injection, schedule: Q01DX001 (ip), vehicle: distilled water + Tween-80 108 % of control | endpoint: mean survival time, dose: 3.0 mg/kg/injection, schedule: Q01DX001 (ip), vehicle: distilled water + Tween-80 109 % of control and 112 % of control | endpoint: mean survival time, dose: 6.0 mg/kg/injection, schedule: Q01DX001 (ip), vehicle: distilled water + Tween-80 114 % of control and 121 % of control | endpoint: mean survival time, dose: 12.0 mg/kg/injection, schedule: Q01DX001 (ip), vehicle: distilled water + Tween-80 120 % of control | endpoint: mean survival time, dose: 48.0 mg/kg/injection, schedule: Q01DX001 (ip), vehicle: distilled water + Tween-80 120 % of control

CCOC(=O)Cc1ccncc1CC
inactive: [1] 94 % of control | [12] 97 % of control | [3] 91 % of control | [13] 104 % of control | endpoint: mean survival time, dose: 400.0 mg/kg/injection, schedule: Q01DX001 (ip), vehicle: saline with Tween-80 100 % of control | [14] 101 % of control

COC(=O)C1C2CCC(C2)C1C(=O)O (configuration not stated)
inactive: endpoint: mean survival time, dose: 100.0 mg/kg/injection, schedule: Q01DX009 (ip), vehicle: saline 96 % of control | endpoint: mean survival time, dose: 200.0 mg/kg/injection, schedule: Q01DX009 (ip), vehicle: saline 96 % of control | endpoint: mean survival time, dose: 400.0 mg/kg/injection, schedule: Q01DX009 (ip), vehicle: saline 94 % of control

O=C1C=C(O)c2ccccc2C1=O
inactive: endpoint: mean survival time, dose: 25.0 mg/kg/injection, schedule: Q01DX001 (ip), vehicle: saline 106 % of control | endpoint: mean survival time, dose: 50.0 mg/kg/injection, schedule: Q01DX001 (ip), vehicle: saline 106 % of control | [9] 102 % of control

CCOC(=O)c1ccc(NC(=O)Nc2nncs2)cc1
inactive: endpoint: mean survival time, dose: 6.25 mg/kg/injection, schedule: Q01DX009 (ip), vehicle: distilled water + Tween-80 101 % of control | endpoint: mean survival time, dose: 12.5 mg/kg/injection, schedule: Q01DX009 (ip), vehicle: distilled water + Tween-80 97 % of control and 103 % of control | endpoint: mean survival time, dose: 25.0 mg/kg/injection, schedule: Q01DX009 (ip), vehicle: distilled water + Tween-80 104 % of control and 107 % of control | endpoint: mean survival time, dose: 50.0 mg/kg/injection, schedule: Q01DX009 (ip), vehicle: distilled water + Tween-80 113 % of control and 115 % of control | endpoint: mean survival time, dose: 100.0 mg/kg/injection, schedule: Q01DX009 (ip), vehicle: distilled water + Tween-80 104 % of control and 112 % of control | endpoint: mean survival time, dose: 200.0 mg/kg/injection, schedule: Q01DX009 (ip), vehicle: distilled water + Tween-80 115 % of control

COc1cc(C(=O)N2CC3CCC(CC3)C2)cc(OC)c1OC
inactive: [2] 93 % of control | [4] 96 % of control | [5] 96 % of control

O=C1c2ccccc2CC12OC2c1ccccc1 (configuration not stated)
inactive: [15] 103 % of control | [16] 110 % of control | [6] 89 % of control | [7] 98 % of control | [8] 98 % of control

CC(=N\N)/C(C)=N/N
inactive: [2] 105 % of control

C#CCOc1ccccc1O
inactive: endpoint: mean survival time, dose: 100.0 mg/kg/injection, schedule: Q04DX003 (ip), vehicle: acetone 101 % of control | endpoint: mean survival time, dose: 200.0 mg/kg/injection, schedule: Q04DX003 (ip), vehicle: acetone 103 % of control | endpoint: mean survival time, dose: 400.0 mg/kg/injection, schedule: Q04DX003 (ip), vehicle: acetone 95 % of control

O=C1OC(=O)c2ccccc21
inactive: [15] 91 % of control | [16] 95 % of control | [6] 95 % of control

CCCCCCCCCCCCCCCCCC[n+]1cccc(C(=O)c2ccccc2)c1
inactive: endpoint: mean survival time, dose: 9.38 mg/kg/injection, schedule: Q01DX001 (ip), vehicle: other 100 % of control | endpoint: mean survival time, dose: 18.75 mg/kg/injection, schedule: Q01DX001 (ip), vehicle: other 108 % of control

Cc1ccc(NC(=O)Oc2cc(C)c(Cl)c(C)c2Cl)c(C)c1
inactive: endpoint: mean survival time, dose: 50.0 mg/kg/injection, schedule: Q01DX009 (ip), vehicle: saline with Tween-80 89 % of control | [12] 101 % of control | [13] 104 % of control

COc1nc(NC2OC(CO)C(O)C(O)C2O)c(I)c(=O)n1C (configuration not stated)
inactive: endpoint: median survival time, dose: 12.5 mg/kg/injection, schedule: Q01DX005 (ip), vehicle: saline with Tween-80 100 % of control | endpoint: median survival time, dose: 25.0 mg/kg/injection, schedule: Q01DX005 (ip), vehicle: saline with Tween-80 100 % of control | endpoint: median survival time, dose: 50.0 mg/kg/injection, schedule: Q01DX005 (ip), vehicle: saline with Tween-80 100 % of control | endpoint: median survival time, dose: 100.0 mg/kg/injection, schedule: Q01DX005 (ip), vehicle: saline with Tween-80 100 % of control | endpoint: median survival time, dose: 200.0 mg/kg/injection, schedule: Q01DX005 (ip), vehicle: saline with Tween-80 101 % of control

CN1C2CCC1C(CO)C(O)C2 (configuration not stated)
inactive: endpoint: mean survival time, dose: 100.0 mg/kg/injection, schedule: Q04DX002 (ip), vehicle: saline 105 % of control | endpoint: mean survival time, dose: 200.0 mg/kg/injection, schedule: Q04DX002 (ip), vehicle: saline 94 % of control | endpoint: mean survival time, dose: 400.0 mg/kg/injection, schedule: Q04DX002 (ip), vehicle: saline 97 % of control

CCCCCCCCCCCCNC(=O)c1cc[n+](C)cc1
inactive: endpoint: mean survival time, dose: 12.5 mg/kg/injection, schedule: Q01DX009 (ip), vehicle: saline 95 % of control | endpoint: mean survival time, dose: 12.5 mg/kg/injection, schedule: Q04DX003 (ip), vehicle: saline 98 % of control | endpoint: mean survival time, dose: 25.0 mg/kg/injection, schedule: Q04DX003 (ip), vehicle: saline 95 % of control | endpoint: mean survival time, dose: 50.0 mg/kg/injection, schedule: Q04DX003 (ip), vehicle: saline 94 % of control

COc1cc(/C=N\N=C\c2ccc(O)c(OC)c2)ccc1O
inactive: [12] 98 % of control | [13] 96 % of control

COc1ccc(C#N)c([N+](=O)[O-])c1
inactive: [2] 95 % of control | [4] 114 % of control

Reference: PubChem BioAssay AID256 (DTP/NCI, 2004)
